The results in this text go back to patent US20240043427A1 (Gilead Sciences, Inc., priority 2020, published 2024).

Assay [1] concerns the target T1, CD73 (Homo sapiens (Human), UniProt P21589). Format: biochemical. The conditions noted are these: 1 mM NaH2PO4 in enzyme buffer, CD73 0.3 nM, AMP 15 uM.
For assay [2], the target named is T1, CD73. Description: MDA-MB-231 Cell Based CD73 Activity Assay (DMEM). The conditions noted are these: MDA-MB-231-GFP cells, DMEM medium with 10% human plasma, 200 uM AMP.

T1 sequence (P21589 27-574): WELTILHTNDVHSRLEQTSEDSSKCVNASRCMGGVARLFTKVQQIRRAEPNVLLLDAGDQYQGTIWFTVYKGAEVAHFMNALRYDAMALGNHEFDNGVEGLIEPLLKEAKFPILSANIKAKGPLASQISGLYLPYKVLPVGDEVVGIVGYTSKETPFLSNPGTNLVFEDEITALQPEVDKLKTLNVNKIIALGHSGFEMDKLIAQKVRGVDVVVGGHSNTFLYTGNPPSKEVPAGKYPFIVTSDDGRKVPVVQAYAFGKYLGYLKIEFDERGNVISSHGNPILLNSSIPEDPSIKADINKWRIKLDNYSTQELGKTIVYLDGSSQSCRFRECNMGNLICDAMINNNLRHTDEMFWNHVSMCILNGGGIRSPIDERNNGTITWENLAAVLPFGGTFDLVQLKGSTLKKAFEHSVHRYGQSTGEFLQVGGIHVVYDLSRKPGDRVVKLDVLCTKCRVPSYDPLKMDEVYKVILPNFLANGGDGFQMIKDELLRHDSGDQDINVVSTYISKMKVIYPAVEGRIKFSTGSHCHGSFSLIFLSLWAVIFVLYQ

Broadly, the IC50 is the concentration that gives 50% inhibition. Low readings indicate greater potency in that assay, high ones weaker potency in that assay. One may read the EC50 as the midpoint of the concentration-response curve. A low value points to a more potent agent. `O=c1[nH]cc(-c2cc(N3CCC4(CCOC4)C3)c3nccn3n2)c(=O)[nH]1` (centres unmarked) [Example 274, 5-(8-(2-oxa-7-azaspiro[4.4]nonan-7-yl)imidazo[1,2-b]pyridazin-6-yl)pyrimidine-2,4(1H,3H)-dione]: the IC50 against CD73 [1] amounted to 16.5 nM. The EC50 on CD73 [2] turned out to be 39.4 nM.
`O=c1[nH]cc(-c2cc(N3CCC4(CCOCC4)C3)c3nccn3n2)c(=O)[nH]1` [Example 275, 5-(8-(8-oxa-2-azaspiro[4.5]decan-2-yl)imidazo[1,2-b]pyridazin-6-yl)pyrimidine-2,4(1H,3H)-dione] displayed an IC50 against CD73 [1] of 8.64 nM. Moreover, the EC50 at CD73 [2] is 36.2 nM.
With `N#Cc1ccc([C@H]2C[C@@H]2c2cc(-c3c[nH]c(=O)[nH]c3=O)nn3ccnc23)c(F)c1` [Example 279, 4-((1S,2S)-2-(6-(2,4-dioxo-1,2,3,4-tetrahydropyrimidin-5-yl)imidazo[1,2-b]pyridazin-8-yl)cyclopropyl)-3-fluorobenzonitrile], at CD73 [1], the half-maximal inhibitory concentration (IC50) came out at 1.07 nM. This compound yielded an EC50 at CD73 [2] of 6.64 nM.
Regarding `N#Cc1ccc([C@H]2C[C@@H]2c2cc(-c3c[nH]c(=O)[nH]c3=O)nn3c(F)cnc23)c(F)c1` [Example 310, 4-((1S,2S)-2-(6-(2,4-dioxo-1,2,3,4-tetrahydropyrimidin-5-yl)-3-fluoroimidazo[1,2-b]pyridazin-8-yl)cyclopropyl)-3-fluorobenzonitrile], the midpoint of inhibition at CD73 [1], the IC50, lay at 0.63 nM. Further, the EC50 on CD73 [2] was 3.4 nM.
Compound `O=c1[nH]cc(-c2cc(N3CCC4(CCCC4)C3)c3nccn3n2)c(=O)[nH]1` [Example 315, 5-(8-(2-azaspiro[4.4]nonan-2-yl)imidazo[1,2-b]pyridazin-6-yl)pyrimidine-2,4(1H,3H)-dione] displayed a 50% inhibitory concentration (IC50) on CD73 [1] of 6.64 nM. Also, at CD73 [2], the EC50 was found to be 27.6 nM.
`O=c1[nH]cc(-c2cc([C@H]3C[C@@H]3c3ccc4c(cnn4CC(F)(F)F)c3)c3nccn3n2)c(=O)[nH]1` [Example 316, 5-(8-((1S,2S)-2-(1-(2,2,2-trifluoroethyl)-1H-indazol-5-yl)cyclopropyl)imidazo[1,2-b]pyridazin-6-yl)pyrimidine-2,4(1H,3H)-dione] yielded an IC50 against CD73 [1] of 0.65 nM. Moreover, a half-maximal effect at CD73 [2] (EC50) was put at 1.21 nM.
On CD73 [1], `O=c1[nH]cc(-c2cc([C@H]3C[C@@H]3c3ccc4c(cnn4CC(F)(F)F)c3)c3ncc(F)n3n2)c(=O)[nH]1` [Example 317, 5-(3-fluoro-8-((1S,2S)-2-(1-(2,2,2-trifluoroethyl)-1H-indazol-5-yl)cyclopropyl)imidazo[1,2-b]pyridazin-6-yl)pyrimidine-2,4(1H,3H)-dione] came in with an IC50 of 1.01 nM. A half-maximal effect on CD73 [2] (EC50) was put at 2 nM.
At CD73 [1], `O=c1[nH]cc(-c2cc([C@H]3C[C@@H]3c3ccc4cnn(CC(F)(F)F)c4c3)c3nccn3n2)c(=O)[nH]1` [Example 318, 5-(8-((1S,2S)-2-(1-(2,2,2-trifluoroethyl)-1H-indazol-6-yl)cyclopropyl)imidazo[1,2-b]pyridazin-6-yl)pyrimidine-2,4(1H,3H)-dione] registered a half-inhibitory concentration (IC50) of 0.43 nM. For the same compound, the midpoint of the response at CD73 [2], the EC50, lay at 0.06 nM.
For `O=c1[nH]cc(-c2cc([C@H]3C[C@@H]3c3ccc4cnn(CC(F)(F)F)c4c3)c3ncc(F)n3n2)c(=O)[nH]1` [Example 319, 5-(3-fluoro-8-((1S,2S)-2-(1-(2,2,2-trifluoroethyl)-1H-indazol-6-yl)cyclopropyl)imidazo[1,2-b]pyridazin-6-yl)pyrimidine-2,4(1H,3H)-dione], the IC50 against CD73 [1] stood at 0.34 nM. This compound registered an EC50 on CD73 [2] of 0.07 nM.
With `CC1(C)CN(c2cc(-c3c[nH]c(=O)[nH]c3=O)nn3ccnc23)CC(F)(F)C1` [Example 320, 5-(8-(3,3-difluoro-5,5-dimethylpiperidin-1-yl)imidazo[1,2-b]pyridazin-6-yl)pyrimidine-2,4(1H,3H)-dione], the IC50 against CD73 [1] is above 250 nM. This compound returned an EC50 on CD73 [2] of 1150 nM.
The matching figures for `O=c1[nH]cc(-c2cc([C@H]3C[C@@H]3c3ccc4ncn(CC(F)(F)F)c4c3)c3nccn3n2)c(=O)[nH]1` [Example 322, 5-(8-((1S,2S)-2-(1-(2,2,2-trifluoroethyl)-1H-benzo[d]imidazol-6-yl)cyclopropyl)imidazo[1,2-b]pyridazin-6-yl)pyrimidine-2,4(1H,3H)-dione]: 0.8 nM and 0.07 nM.
Regarding `O=c1[nH]cc(-c2cc([C@H]3C[C@@H]3c3ccc4ncn(CC(F)(F)F)c4c3)c3ncc(F)n3n2)c(=O)[nH]1` [Example 323, 5-(3-fluoro-8-((1S,2S)-2-(1-(2,2,2-trifluoroethyl)-1H-benzo[d]imidazol-6-yl)cyclopropyl)imidazo[1,2-b]pyridazin-6-yl)pyrimidine-2,4(1H,3H)-dione], at CD73 [1], the IC50 came to 0.51 nM. This compound returned a half-maximal effective concentration (EC50) at CD73 [2] of 0.06 nM.
In turn, `O=c1[nH]cc(-c2cc(N3CC(F)(F)C4(CCC4)C3)c3nccn3n2)c(=O)[nH]1` [Example 325, 5-(8-(8,8-difluoro-6-azaspiro[3.4]octan-6-yl)imidazo[1,2-b]pyridazin-6-yl)pyrimidine-2,4(1H,3H)-dione] came in with an IC50 at CD73 [1] of 1.7 nM. On CD73 [2], this compound displayed an EC50 of 11.2 nM.
`CC1(C)CN(c2cc(-c3c[nH]c(=O)[nH]c3=O)nn3cc(Cl)nc23)CC1(F)F` [Example 328, 5-(2-chloro-8-(3,3-difluoro-4,4-dimethylpyrrolidin-1-yl)imidazo[1,2-b]pyridazin-6-yl)pyrimidine-2,4(1H,3H)-dione] returned an IC50 against CD73 [1] of 3.68 nM. The same compound had an EC50 on CD73 [2] of 40.5 nM.
For the compound `O=c1[nH]cc(-c2cc([C@H]3C[C@@H]3c3ccc4c(C(F)(F)F)nn(CC(F)(F)F)c4c3)c3ncc(F)n3n2)c(=O)[nH]1` [Example 329, 5-(3-fluoro-8-((1S,2S)-2-(1-(2,2,2-trifluoroethyl)-3-(trifluoromethyl)-1H-indazol-6-yl)cyclopropyl)imidazo[1,2-b]pyridazin-6-yl)pyrimidine-2,4(1H,3H)-dione], at CD73 [1], the IC50 came out at 0.64 nM. The concentration for a half-maximal effect (EC50) at CD73 [2] stood at 0.71 nM.
For `O=c1[nH]cc(-c2cc(N3C[C@H](Oc4cc(C(F)(F)F)ccn4)C(F)(F)C3)c3nccn3n2)c(=O)[nH]1` [Example 330, (S)-5-(8-(3,3-difluoro-4-((4-(trifluoromethyl)pyridin-2-yl)oxy)pyrrolidin-1-yl)imidazo[1,2-b]pyridazin-6-yl)pyrimidine-2,4(1H,3H)-dione] the same measures were 1.07 nM and 0.51 nM.
The matching figures for `O=c1[nH]cc(-c2cc(N3C[C@@H](Oc4cc(C(F)(F)F)ccn4)C(F)(F)C3)c3nccn3n2)c(=O)[nH]1` [Example 331, (R)-5-(8-(3,3-difluoro-4-((4-(trifluoromethyl)pyridin-2-yl)oxy)pyrrolidin-1-yl)imidazo[1,2-b]pyridazin-6-yl)pyrimidine-2,4(1H,3H)-dione]: 16.2 nM and 11.1 nM.
`O=c1[nH]cc(-c2cc(N3C[C@@H](Oc4ccc(OC(F)F)cn4)C(F)(F)C3)c3nccn3n2)c(=O)[nH]1` [Example 332, (R)-5-(8-(4-((5-(difluoromethoxy)pyridin-2-yl)oxy)-3,3-difluoropyrrolidin-1-yl)imidazo[1,2-b]pyridazin-6-yl)pyrimidine-2,4(1H,3H)-dione] yielded an IC50 against CD73 [1] of 8.61 nM. At CD73 [2], this compound registered an EC50 of 26.9 nM.
In turn, `O=c1[nH]cc(-c2cc(N3C[C@H](Oc4ccc(OC(F)F)cn4)C(F)(F)C3)c3nccn3n2)c(=O)[nH]1` [Example 333, (S)-5-(8-(4-((5-(difluoromethoxy)pyridin-2-yl)oxy)-3,3-difluoropyrrolidin-1-yl)imidazo[1,2-b]pyridazin-6-yl)pyrimidine-2,4(1H,3H)-dione] gave an IC50 against CD73 [1] of 0.89 nM. For the same compound, on CD73 [2], it took 1.91 nM to reach a half-maximal effect (EC50).
In turn, `O=c1[nH]cc(-c2cc(N3C[C@@H](Oc4ccc(OC(F)(F)F)cn4)C(F)(F)C3)c3nccn3n2)c(=O)[nH]1` [Example 334, (R)-5-(8-(3,3-difluoro-4-((5-(trifluoromethoxy)pyridin-2-yl)oxy)pyrrolidin-1-yl)imidazo[1,2-b]pyridazin-6-yl)pyrimidine-2,4(1H,3H)-dione] displayed an IC50 at CD73 [1] of 24.4 nM. Further, at CD73 [2], the EC50 was 118 nM.
Regarding `O=c1[nH]cc(-c2cc(N3C[C@H](Oc4ccc(OC(F)(F)F)cn4)C(F)(F)C3)c3nccn3n2)c(=O)[nH]1` [Example 335, (S)-5-(8-(3,3-difluoro-4-((5-(trifluoromethoxy)pyridin-2-yl)oxy)pyrrolidin-1-yl)imidazo[1,2-b]pyridazin-6-yl)pyrimidine-2,4(1H,3H)-dione], at CD73 [1], the IC50 was determined as 2.8 nM. Besides, the midpoint of the response at CD73 [2], the EC50, lay at 6.77 nM.
On to `O=c1[nH]cc(-c2cc(N3C[C@@H](Oc4ccc(OC(F)(F)C(F)(F)F)cn4)C(F)(F)C3)c3nccn3n2)c(=O)[nH]1` [Example 336, (R)-5-(8-(3,3-difluoro-4-((5-(perfluoroethoxy)pyridin-2-yl)oxy)pyrrolidin-1-yl)imidazo[1,2-b]pyridazin-6-yl)pyrimidine-2,4(1H,3H)-dione], for which half-maximal inhibition on CD73 [1] (IC50) was put at 34.9 nM. The EC50 on CD73 [2] is above 250 nM.
Consider `O=c1[nH]cc(-c2cc(N3C[C@H](Oc4ccc(OC(F)(F)C(F)(F)F)cn4)C(F)(F)C3)c3nccn3n2)c(=O)[nH]1` [Example 337, (S)-5-(8-(3,3-difluoro-4-((5-(perfluoroethoxy)pyridin-2-yl)oxy)pyrrolidin-1-yl)imidazo[1,2-b]pyridazin-6-yl)pyrimidine-2,4(1H,3H)-dione], for which the IC50 on CD73 [1] was 3.29 nM. This compound had an EC50 at CD73 [2] of 15.9 nM.
Consider `N#Cc1ccc(O[C@@H]2CN(c3cc(-c4c[nH]c(=O)[nH]c4=O)nn4ccnc34)CC2(F)F)nc1` [Example 338, (R)-6-((1-(6-(2,4-dioxo-1,2,3,4-tetrahydropyrimidin-5-yl)imidazo[1,2-b]pyridazin-8-yl)-4,4-difluoropyrrolidin-3-yl)oxy)nicotinonitrile], for which the IC50 against CD73 [1] is 10.9 nM. At CD73 [2], this compound gave an EC50 of 72.8 nM.
Regarding `N#Cc1ccc(O[C@H]2CN(c3cc(-c4c[nH]c(=O)[nH]c4=O)nn4ccnc34)CC2(F)F)nc1` [Example 339, (S)-6-((1-(6-(2,4-dioxo-1,2,3,4-tetrahydropyrimidin-5-yl)imidazo[1,2-b]pyridazin-8-yl)-4,4-difluoropyrrolidin-3-yl)oxy)nicotinonitrile], the IC50 against CD73 [1] came out at 0.91 nM. A half-maximal response on CD73 [2] (EC50) required 2.6 nM.
